Test results published in US20200163984A1, “USE OF ISOVALERYL SPIRAMYCIN I, II AND/OR III IN MANUFACTURING MEDICAMENT FOR TREATING AND/OR PREVENTING TUMOR, AND MEDICAMENT” (SHENYANG FUYANG PHARMACEUTICAL TECHNOLOGY CO., LTD., priority 2017, published 2020).

How the values were obtained:
[1] = tested on: transplanted tumor of human esophageal cancer cell TE-1; experiment: TE-1 transplanted tumor in nude mice
Experimental: (§1) Then cell concentration was adjusted to 1×10^7/ml with matrigel, then each nude mouse was inoculated subcutaneously with 0.2 ml of cells at its right armpit and recorded as the first day of inoculation. When the tumor grows to be greater than or equal to 100 mm^3, the mice were randomly divided into 11 groups with 6 mice in each group: a model group, a cyclophosphamide group, isovaleryl spiramycin I groups with doses of 25, 50 and 100 mg/kg, isovaleryl spiramycin II groups with doses of 25, 50 and 100 mg/kg, and isovaleryl spiramycin III groups with doses of 25, 50 and 100 mg/kg. Each group was continuously administered intragastrically for 30 days with a dose of 20 ml/kg. The mice were sacrificed the next day after drug withdrawal and the indicators were tested. The long diameter and short diameter of the tumor, and the body weight of each mouse were recorded every 3 days from drug administration to nude mouse sacrifice.
(§2) The body weight of the nude mice and the long diameter (a) and short diameter (b) of the transplanted tumor were measured every 3 days, and the tumor volume (v), relative tumor volume (RTV) and relative tumor proliferation rate (T/C) are calculated respectively according to the following formulas, wherein V=a×b^2/2; RTV=V/V0 (V0 is the tumor volume before administration, V is the tumor volume before sacrifice), and T/C (%)=treatment group RTV/model control group RTV×100%.
(§3) Each mouse was weighed and sacrificed. After the tumor was completely stripped off from the body of the mouse, the non-tumor tissues such as blood stains and fat were removed to weigh the tumor and calculate the tumor growth inhibition rate. The average tumor weight of each group of mice is used as an indicator of efficacy. Tumor growth inhibition rate (%)=(1−the average tumor weight of the treatment group/the average tumor weight of the model group)×100%.

[2] = tested on: transplanted tumor of human breast cancer cell MDA-MB-231; experiment: MDA-MB-231 transplanted tumor in nude mice
Experimental: as §1, §2, §3

[3] = tested on: transplanted tumor of human hepatoma cell HepG-2; experiment: HepG-2 transplanted tumor in nude mice; settings: for Tumor Volume (mm3) (d 1): d1
Experimental: as §1, §2, §3

[4] = tested on: transplanted tumor of human lymphoma cell U937; experiment: U937 transplanted tumor in nude mice; settings: for Tumor Volume (mm3) (d 1): d1
Experimental: as §1, with “U937 cells in a logarithmic growth phase were taken and subjected to a trypan blue exclusion experiment showing that the cell viability was more than 95%, then the cells were subjected to trypsinization, centrifugation, and supernatant removal. Then” for “Then”
as §2, §3

[5] = TE-1, 12.5 mg/kg (low dose) i.g. 30 days
[6] = TE-1, 25 mg/kg (medium dose) i.g. 30 days
[7] = TE-1, 50 mg/kg (high dose) i.g. 30 days
[8] = MDA-MB-231, 25 mg/kg (low dose) i.g. 30 days
[9] = MDA-MB-231, 50 mg/kg (medium dose) i.g. 30 days
[10] = MDA-MB-231, 100 mg/kg (high dose) i.g. 30 days
[11] = HepG-2, high dose (100 mg/kg in method) i.g. 30 days
[12] = HepG-2, low dose (25 mg/kg in method) i.g. 30 days
[13] = HepG-2, medium dose (50 mg/kg in method) i.g. 30 days
[14] = U937, high dose (100 mg/kg in method) i.g. 30 days
[15] = U937, low dose (25 mg/kg in method) i.g. 30 days
[16] = U937, medium dose (50 mg/kg in method) i.g. 30 days

SMILES: CO[C@@H]1[C@@H](O[C@@H]2O[C@H](C)[C@@H](O[C@H]3C[C@@](C)(O)[C@@H](OC(=O)CC(C)C)[C@H](C)O3)[C@H](N(C)C)[C@H]2O)[C@@H](CC=O)C[C@@H](C)[C@@H](O[C@H]2CC[C@H](N(C)C)[C@@H](C)O2)/C=C/C=C/C[C@@H](C)OC(=O)C[C@H]1O [Isovaleryl spiramycin I, isovaleryl spiramycin I]
- Inhibition Rate (tumor growth inhibition rate) [1, 5]: 30.92%
- Relative Tumor Proliferation Rate (T/C) [1, 5]: 60.55%
- Relative Tumor Volume (RTV) [1, 5]: 5.48 ± 3.80
- Tumor Volume (d 1) [1, 5]: 408.51 ± 150.80 mm3
- Tumor Volume (d 30) [1, 5]: 2690.27 ± 374.79 mm3
- Tumor Weight [1, 5]: 1.08 ± 0.24 g
- Inhibition Rate (tumor growth inhibition rate) [1, 6]: 51.01%
- Relative Tumor Proliferation Rate (T/C) [1, 6]: 40.70%
- Relative Tumor Volume (RTV) [1, 6]: 3.94 ± 2.71
- Tumor Volume (d 1) [1, 6]: 258.44 ± 104.69 mm3
- Tumor Volume (d 30) [1, 6]: 1143.85 ± 402.36 mm3
- Tumor Weight [1, 6]: 0.77 ± 0.43 g
- Inhibition Rate (tumor growth inhibition rate) [1, 7]: 69.71%
- Relative Tumor Proliferation Rate (T/C) [1, 7]: 20.61%
- Relative Tumor Volume (RTV) [1, 7]: 3.65 ± 1.71
- Tumor Volume (d 1) [1, 7]: 279.56 ± 156.70 mm3
- Tumor Volume (d 30) [1, 7]: 626.64 ± 431.35 mm3
- Tumor Weight [1, 7]: 0.48 ± 0.36 g
- tumor volume and relative tumor volume compared with the model group ([1]; TE-1, low, medium and high doses, P<0.05): significantly lower
- mouse weight compared with the model group ([1]; mouse, in vivo): no significant changes
- Inhibition Rate (tumor growth inhibition rate) [2, 8]: 22.84%
- Relative Tumor Proliferation Rate (T/C) [2, 8]: 69.71%
- Relative Tumor Volume (RTV) [2, 8]: 10.89 ± 2.52
- Tumor Volume (d 1) [2, 8]: 111.07 ± 8.47 mm3
- Tumor Volume (d 30) [2, 8]: 1213.38 ± 299.29 mm3
- Tumor Weight [2, 8]: 1.79 ± 0.34 g
- Inhibition Rate (tumor growth inhibition rate) [2, 9]: 55.17%
- Relative Tumor Proliferation Rate (T/C) [2, 9]: 44.18%
- Relative Tumor Volume (RTV) [2, 9]: 6.90 ± 2.43
- Tumor Volume (d 1) [2, 9]: 116.00 ± 8.13 mm3
- Tumor Volume (d 30) [2, 9]: 807.45 ± 319.26 mm3
- Tumor Weight [2, 9]: 1.04 ± 0.44 g
- Inhibition Rate (tumor growth inhibition rate) [2, 10]: 69.11%
- Relative Tumor Proliferation Rate (T/C) [2, 10]: 27.74%
- Relative Tumor Volume (RTV) [2, 10]: 4.33 ± 3.47
- Tumor Volume (d 1) [2, 10]: 111.91 ± 10.26 mm3
- Tumor Volume (d 30) [2, 10]: 458.55 ± 338.74 mm3
- Tumor Weight [2, 10]: 0.72 ± 0.48 g
- tumor volume and relative tumor volume compared with the model group ([2]; MDA-MB-231, low, medium and high doses, P<0.05): significantly lower
- mouse weight compared with the model group ([2]; mouse, in vivo): no significant changes
- Relative Tumor Proliferation Rate (T/C) [3, 11]: 27.49%
- tumor growth inhibition rate [3, 11]: 68.22%
- Relative Tumor Proliferation Rate (T/C) [3, 12]: 65.03%
- tumor growth inhibition rate [3, 12]: 24.43%
- tumor volume and relative tumor volume compared with the model group ([3]; HepG-2, low, medium and high doses, P<0.05): significantly lower
- Relative Tumor Proliferation Rate (T/C) [3, 13]: 42.12%
- tumor growth inhibition rate [3, 13]: 57.93%
- Inhibition Rate (%) ([3]; HepG-2 nude mice, 25 mg/kg): 24.43%
- Relative Tumor Proliferation Rate (T/C) ([3]; HepG-2 nude mice, 25 mg/kg): 65.03%
- Relative Tumor Volume (RTV) ([3]; HepG-2 nude mice, 25 mg/kg): 10.89 ± 2.67
- Tumor Weight ([3]; HepG-2 nude mice, 25 mg/kg): 1.84 ± 0.23 g
- Tumor Volume (mm3) (d 1) ([3]; HepG-2 nude mice, 25 mg/kg): 114.02 ± 11.68 mm3
- Tumor Volume (mm3) (d30) ([3]; HepG-2 nude mice, 25 mg/kg): 1248.33 ± 337.59 mm3
- Inhibition Rate (%) ([3]; HepG-2 nude mice, 50 mg/kg): 57.93%
- Relative Tumor Proliferation Rate (T/C) ([3]; HepG-2 nude mice, 50 mg/kg): 42.12%
- Relative Tumor Volume (RTV) ([3]; HepG-2 nude mice, 50 mg/kg): 7.05 ± 3.35
- Tumor Weight ([3]; HepG-2 nude mice, 50 mg/kg): 1.02 ± 0.45 g
- Tumor Volume (mm3) (d 1) ([3]; HepG-2 nude mice, 50 mg/kg): 122.31 ± 4.68 mm3
- Tumor Volume (mm3) (d30) ([3]; HepG-2 nude mice, 50 mg/kg): 851.37 ± 371.80 mm3
- Inhibition Rate (%) ([3]; HepG-2 nude mice, 100 mg/kg): 68.22%
- Relative Tumor Proliferation Rate (T/C) ([3]; HepG-2 nude mice, 100 mg/kg): 27.49%
- Relative Tumor Volume (RTV) ([3]; HepG-2 nude mice, 100 mg/kg): 4.60 ± 3.39
- Tumor Weight ([3]; HepG-2 nude mice, 100 mg/kg): 0.77 ± 0.44 g
- Tumor Volume (mm3) (d 1) ([3]; HepG-2 nude mice, 100 mg/kg): 110.06 ± 9.58 mm3
- Tumor Volume (mm3) (d30) ([3]; HepG-2 nude mice, 100 mg/kg): 481.16 ± 326.94 mm3
- mouse weight compared with the model group ([3]; mouse, in vivo): no significant changes
- Body Weight (g) (d1) ([3]; mouse, in vivo, 25 mg/kg): 21.36 ± 1.67 g
- Body Weight (g) (d30) ([3]; mouse, in vivo, 25 mg/kg): 23.24 ± 1.33 g
- Body Weight (g) (d1) ([3]; mouse, in vivo, 50 mg/kg): 21.47 ± 1.58 g
- Body Weight (g) (d30) ([3]; mouse, in vivo, 50 mg/kg): 23.64 ± 1.67 g
- Body Weight (g) (d1) ([3]; mouse, in vivo, 100 mg/kg): 21.37 ± 1.36 g
- Body Weight (g) (d30) ([3]; mouse, in vivo, 100 mg/kg): 22.867 ± 1.57 g
- Relative Tumor Proliferation Rate (T/C) [4, 14]: 35.25%
- tumor growth inhibition rate [4, 14]: 65.03%
- Relative Tumor Proliferation Rate (T/C) [4, 15]: 68.65%
- tumor growth inhibition rate [4, 15]: 41.73%
- tumor volume and relative tumor volume compared with the model group ([4]; U937, low, medium and high doses, P<0.05): significantly lower
- Relative Tumor Proliferation Rate (T/C) [4, 16]: 39.74%
- tumor growth inhibition rate [4, 16]: 50.73%
- Inhibition Rate (%) ([4]; U937 nude mice, 12.5 mg/kg): 41.73%
- Relative Tumor Proliferation Rate (T/C) ([4]; U937 nude mice, 12.5 mg/kg): 68.65%
- Relative Tumor Volume (RTV) ([4]; U937 nude mice, 12.5 mg/kg): 11.70 ± 3.59
- Tumor Weight ([4]; U937 nude mice, 12.5 mg/kg): 1.13 ± 0.60 g
- Tumor Volume (mm3) (d 1) ([4]; U937 nude mice, 12.5 mg/kg): 108.43 ± 6.49 mm3
- Tumor Volume (mm3) (d30) ([4]; U937 nude mice, 12.5 mg/kg): 1270.43 ± 435.28 mm3
- Inhibition Rate (%) ([4]; U937 nude mice, 25 mg/kg): 50.73%
- Relative Tumor Proliferation Rate (T/C) ([4]; U937 nude mice, 25 mg/kg): 39.74%
- Relative Tumor Volume (RTV) ([4]; U937 nude mice, 25 mg/kg): 6.77 ± 0.57
- Tumor Weight ([4]; U937 nude mice, 25 mg/kg): 0.95 ± 0.42 g
- Tumor Volume (mm3) (d 1) ([4]; U937 nude mice, 25 mg/kg): 108.61 ± 9.06 mm3
- Tumor Volume (mm3) (d30) ([4]; U937 nude mice, 25 mg/kg): 734.22 ± 76.87 mm3
- Inhibition Rate (%) ([4]; U937 nude mice, 50 mg/kg): 65.03%
- Relative Tumor Proliferation Rate (T/C) ([4]; U937 nude mice, 50 mg/kg): 35.25%
- Relative Tumor Volume (RTV) ([4]; U937 nude mice, 50 mg/kg): 6.01 ± 2.26
- Tumor Weight ([4]; U937 nude mice, 50 mg/kg): 0.68 ± 0.09 g
- Tumor Volume (mm3) (d 1) ([4]; U937 nude mice, 50 mg/kg): 109.98 ± 5.88 mm3
- Tumor Volume (mm3) (d30) ([4]; U937 nude mice, 50 mg/kg): 660.17 ± 37.49 mm3
- mouse weight compared with the model group ([4]; mouse, in vivo): no significant changes
- Body Weight (g) (d1) ([4]; mouse, in vivo, 12.5 mg/kg): 21.19 ± 0.66 g
- Body Weight (g) (d30) ([4]; mouse, in vivo, 12.5 mg/kg): 21.16 ± 0.74 g
- Body Weight (g) (d1) ([4]; mouse, in vivo, 25 mg/kg): 21.28 ± 0.52 g
- Body Weight (g) (d30) ([4]; mouse, in vivo, 25 mg/kg): 21.01 ± 0.68 g
- Body Weight (g) (d1) ([4]; mouse, in vivo, 50 mg/kg): 20.64 ± 0.39 g
- Body Weight (g) (d30) ([4]; mouse, in vivo, 50 mg/kg): 20.94 ± 0.77 g
